{
  "source": "paper PMC11032351",
  "about": "“Epigenetic modulation through BET bromodomain inhibitors as a novel therapeutic strategy for progranulin-deficient frontotemporal dementia” (Scientific Reports, 2024)",
  "data": [
    {"target": "T1, Endogenous BRD4 (NPC) (Homo sapiens, UniProt O60885)", "T1 construct": "target engagement toward endogenous BRD4 derived from cellular lysates of cell types of interest; endogenous in cells; host or cells: 8330-8 human iPSC-derived neural progenitor cells", "test": "CoraFluor TR-FRET ligand displacement, endogenous BRD4 in NPC lysate", "type": "binding", "conditions": "with 95% confidence interval, read-out: Endogenous BRD4 (NPC), KD,app", "description": "A cell pellet from one 15 cm dish (~ 25 M cells) of HEK293T cells, or from one confluent T-75 flask 8330-8 NPC cells (~ 9 M cells), was allowed to thaw on ice and cells were suspended in 400 μL lysis buffer (25 mM HEPES, 150 mM NaCl, 0.2% (v/v) Triton X-100, 0.02% (v/v) TWEEN-20, pH 7.5 supplemented with 2 mM DTT and one Roche cOmplete, Mini, EDTA-free protease inhibitor cocktail tablet (Sigma 11,836,170,001) per 7 mL. Cells were homogenized via passage through a 27.5-gauge needle 5 times, and the resulting mixture was incubated with slow, end-over-end mixing at 4 °C for 15 min. The lysate was clarified via centrifugation at 16,100 × g for 10 min at 4 °C then 800 μL (1:3 dilution) dilution buffer (25 mM HEPES, 150 mM NaCl, 0.005% (v/v) TWEEN-20, pH 7.5) was added and the lysate was re-clarified at 16,100 × g for 10 min at 4 °C. Total protein was quantified via detergent-compatible Bradford assay (ThermoFisher 23,246). The lysate was used fresh or flash-frozen in liquid nitrogen and stored at − 80 °C in single-use aliquots.\nUnless otherwise noted, experiments were performed in white, 384-well microtiter plates (Corning 3572 or PerkinElmer ProxiPlate-384 Plus) in 30 μL or 10 μL assay volume, respectively. TR-FRET measurements were acquired on a Tecan SPARK plate reader with SPARKCONTROL software version V2.1 (Tecan Group Ltd.), with the following settings: 340/50 nm excitation, 490/10 nm (Tb), 520/10 nm (FITC) emission, 100 μs delay, and 400 μs integration. The 490/10 and 520/10 nm emission channels were acquired with a 50% mirror and a dichroic 510 mirror, respectively, using independently optimized detector gain settings unless specified otherwise. The TR-FRET ratio was taken as the 520/490 nm intensity ratio on a per-well basis.\nFor the profiling of endogenous BRD4, cell lysates as prepared above were diluted to 0.8 mg/mL total protein in 1:3 lysis buffer:dilution buffer with 0.5 nM rabbit anti-BRD4 antibody (Cell Signaling Technology; E2A7X) and 1 nM CoraFluor-1-labeled anti-rabbit Nano-Secondary (ChromoTek CTK0101). JQ1-FITC was added in serial dilution (cmax = 200 nM) using an HP D300 digital dispenser and allowed to equilibrate for 2 h at room temperature before TR-FRET measurements were taken. Nonspecific signal was determined with 50 μM JQ1-Acid, and data were fitted to a One Site–Specific Binding model in Prism 9. The KD,app determined from the one-site model was then adjusted for a two-site model using Eq. 1.\nThe following assay parameters have been used: (i) 4 nM GST-BRD4(BD1), 4 nM CoraFluor-labeled GST VHH, 20 nM JQ1-FITC in assay buffer, (ii) 4 nM GST-BRD4(BD2), 4 nM CoraFluor-labeled GST VHH, 20 nM JQ1-FITC in assay buffer, (iii) HEK293T or NPC cell lysate at 0.8 mg/mL total protein, 1 nM rabbit anti-BRD4 antibody, 2 nM CoraFluor-labeled anti-rabbit Nano-Secondary, 20 nM JQ1-FITC. For all experiments, test compounds were added in serial dilution (cmax = 10 μM) using an HP D300 digital dispenser and allowed to equilibrate for 2 h at room temperature before TR-FRET measurements were taken. The assay floor (background) was defined with the 10 μM mivebresib dose, and the assay ceiling (top) was defined via a no-inhibitor control. Data were fitted to a four-parameter dose–response model in Prism 9.\nFor TR-FRET ligand displacement assays with recombinant bromodomains, we have determined the KD of the respective fluorescent tracer (JQ1-FITC) under each assay condition. For endogenous BRD4 in whole cell extract, we have determined the KD,app of JQ1-FITC under each assay condition. Inhibitor KD and KD,app values have been calculated using Cheng-Prusoff principles, outlined in Eq. 2 below:2 KDorKD,app=IC50/1+[S]/KX where IC50 is the measured IC50 value, [S] is the concentration of fluorescent tracer, and KX is the KD or KD,app of the fluorescent tracer for a given condition.", "units": {"Kd": "nM"}, "values": [
      {"compound": "Cn1cc(-c2cc(F)cnc2Oc2ccc(F)cc2)c2cc[nH]c2c1=O", "note": "[Compound 86A, 4-(5-fluoro-2-(4-fluorophenoxy)pyridin-3-yl)-6-methyl-1,6-dihydro-7H-pyrrolo[2,3-c]pyridin-7-one]", "Kd": 559},
      {"compound": "Cn1cc(-c2cccnc2Oc2ccc(F)c(F)c2)c2cc[nH]c2c1=O", "note": "[Compound 81A, 4-(2-(3,4-difluorophenoxy)pyridin-3-yl)-6-methyl-1,6-dihydro-7H-pyrrolo[2,3-c]pyridin-7-one]", "Kd": 32},
      {"compound": "Cn1cc(-c2cccnc2Oc2cc(F)cc(F)c2)c2cc[nH]c2c1=O", "note": "[Compound 82A, 4-(2-(3,5-difluorophenoxy)pyridin-3-yl)-6-methyl-1,6-dihydro-7H-pyrrolo[2,3-c]pyridin-7-one]", "Kd": 45},
      {"compound": "Cn1ccc2c(-c3cccnc3Oc3ccc(F)c(F)c3)c[nH]c2c1=O", "note": "[Compound 81B, 3-(2-(3,4-difluorophenoxy)pyridin-3-yl)-6-methyl-1,6-dihydro-7H-pyrrolo[2,3-c]pyridin-7-one]", "Kd": 532},
      {"compound": "Cn1ccc2c(-c3cccnc3Oc3ccc(F)cc3)c[nH]c2c1=O", "note": "[Compound 18B, 3-[2-(4-fluorophenoxy)pyridin-3-yl]-6-methyl-1,6-dihydro-7H-pyrrolo[2,3-c]pyridin-7-one]", "Kd": 131},
      {"compound": "Cn1cc(-c2cccnc2Oc2ccc(F)cc2)c2cc[nH]c2c1=O", "note": "[Compound 18A, 4-(2-(4-fluorophenoxy)pyridin-3-yl)-6-methyl-1H-pyrrolo[2,3-c]pyridin-7(6H)-one]", "Kd": 46},
      {"compound": "Cn1cc(-c2cccnc2Sc2ccc(F)cc2)c2cc[nH]c2c1=O", "note": "[Compound 84A, 4-(2-((4-fluorophenyl)thio)pyridin-3-yl)-6-methyl-1,6-dihydro-7H-pyrrolo[2,3-c]pyridin-7-one]", "Kd": 378},
      {"compound": "Cn1ccc2c(-c3cc(F)cnc3Oc3ccc(F)cc3)c[nH]c2c1=O", "note": "[Compound 86B, 3-(5-fluoro-2-(4-fluorophenoxy)pyridin-3-yl)-6-methyl-1,6-dihydro-7H-pyrrolo[2,3-c]pyridin-7-one]", "Kd": 5900},
      {"compound": "Cn1ccc2c(-c3cccnc3Sc3ccc(F)cc3)c[nH]c2c1=O", "note": "[Compound 84B, 3-(2-((4-fluorophenyl)thio)pyridin-3-yl)-6-methyl-1,6-dihydro-7H-pyrrolo[2,3-c]pyridin-7-one]", "Kd": 195},
      {"compound": "Cn1ccc2c(-c3cccnc3Nc3ccc(F)cc3)c[nH]c2c1=O", "note": "[Compound 85B, 3-(2-((4-fluorophenyl)amino)pyridin-3-yl)-6-methyl-1,6-dihydro-7H-pyrrolo[2,3-c]pyridin-7-one]", "Kd": 3810},
      {"compound": "Cn1cc(-c2cccnc2Nc2ccc(F)cc2)c2cc[nH]c2c1=O", "note": "[Compound 85A, 4-(2-((4-fluorophenyl)amino)pyridin-3-yl)-6-methyl-1,6-dihydro-7H-pyrrolo[2,3-c]pyridin-7-one]", "Kd": 100},
      {"compound": "Cn1ccc2c(-c3cccnc3Oc3cc(F)cc(F)c3)c[nH]c2c1=O", "note": "[Compound 82B, 3-(2-(3,5-difluorophenoxy)pyridin-3-yl)-6-methyl-1,6-dihydro-7H-pyrrolo[2,3-c]pyridin-7-one]", "Kd": 430}
    ]}
  ]
}
